What was measured:
[1] = system: TRAMP-C2 prostate cancer cells; format: in vivo; conditions: C57BL/6 mice, gavage once daily 5 days per week, 4 weeks
Procedure: METHODS: TRAMP-C2 cells, a mouse PC cell line are obtained from the American Type Culture Collection (Rockville, Md.). Six week old male C57BL/6 mice are purchased from Harlan Laboratories (Harlan, USA). TRAMP-C2 cells are suspended in media and aliquots are injected into the flank of male C57BL/6 mice using a 27 gauge needle. Two weeks after tumor transplantation when tumors appear, mice are divided in six groups treated as indicated:
Animals are dosed by gavage once daily, 5 days per week. Tumor volumes are measured weekly for 4 weeks following transplantation using calipers. Later, the tumors are removed, their final weights and volumes are measured. […] Tumor volumes in mm^2 are determined during the study using the formula π/6×larger diameter×(smaller diameter)^2. The data are expressed as the increase or decrease in tumor volume in mm^3. Histological studies are performed to assess the contribution of apotosis promotion in the reduction of tumor volume in treated groups.

Towne strain HCMV = assay: HCMV titer reduction assay in HEL fibroblasts; format: cell-based, Human Cytomegalovirus; conditions: HEL fibroblasts infected with HCMV, supernatant day 6 postinfection, plaque assay
Procedure: Cell culture studies are performed to establish activity of DIM-related indoles alone and in combination with GFR's as inhibitors of HCMV replication in an in vitro model relevant to human infection.
Cell culture and viral infection. Human embryonic lung (HEL) fibroblasts are cultured in Eagle's minimal essential media (EMEM) (Gibco, BRL) supplemented with 10% fetal bovine serum (FBS) plus antibiotics.
Towne strain HCMV (passages 36 to 40) is propagated in HEL fibroblasts as previously described (Kowalik et al., 1993, Proc. Natl. Acad. Sci. USA 90:1107-1111).
For infection, cells are grown to confluence and then are serum starved for 48 h in minimal essential media (MEM) plus antibiotics. Cells are infected with HCMV that had been purified through a sucrose cushion to eliminate cytokines and growth factor contamination. Seeding of cells using a multiplicity of infection of 2-5 PFU per cell is used.
At the indicated time after infection, cells are washed once and then are maintained in MEM plus antibiotics until they are harvested. Cells are pretreated for 1 h with the listed compound or combinations of compounds prior to infection. […]
Titer reduction assay. The levels of active virus during the culture period are determined using a Titer Reduction Assay. […] HCMV plaque numbers are scored under an inverted microscope.

Structure (SMILES) | tumor growth (tumor volumes compared to control group) [1] | viral titers (Towne strain HCMV)
c1ccc2c(Cc3c[nH]c4ccccc34)c[nH]c2c1 [Diindolylmethane, 3,3′-diindolylmethane] | inhibition of tumor growth | significant decrease
COc1cc2ncnc(Nc3ccc(F)c(Cl)c3)c2cc1OCCCN1CCOCC1 [Gefitinib, N-(3-chloro-4-fluorophenyl)-7-methoxy-6-(3-morpholinopropoxy)quinazolin-4-amine, reference compound] | inhibition of tumor growth | 

Reference: patent US20060111423A1, “Use of diindolylmethane-related indoles and growth factor receptor inhibitors for the treatment of human cytomegalovirus-associated disease” (priority 2004, published 2006)
